Patent publication US9458137B2, “Substituted indol-5-ol derivatives and their therapeutical applications” (NantBioScience, Inc., priority 2012, dated 2016)

What was measured:
Assay in all cases: Kinase panel activity
Format in all cases: biochemical
Conditions in all cases: 0.1 μM, ATP Km
[1] = biological target: Ab1(T3151)(h) (Homo sapiens, UniProt P00519, T315I)
Protocol: (§1) The effect of NTW-3475 on kinase activity was tested for a wide range of kinases and is shown in Table 2: Summary Sheet, Activity % ATP Concentration: Km

[2] = biological target: Ab1(m) (Mus musculus, UniProt P00520)
Protocol: as §1

[3] = biological target: B1k(h) (Homo sapiens, UniProt P51451)
Protocol: as §1

[4] = biological target: Bmx(h) (Homo sapiens, UniProt P51813)
Protocol: as §1

[5] = biological target: CHK2(R145W)(h) (Homo sapiens, UniProt O96017, R145W)
Protocol: as §1

[6] = biological target: CK1δ(h) (Homo sapiens, UniProt P48730)
Protocol: as §1

[7] = biological target: CLK3(h) (Homo sapiens, UniProt P49761)
Protocol: as §1

[8] = biological target: T1, EphA5(h) (Homo sapiens, UniProt P54756)
T1 construct: purchased Millipore (KinaseProfiler service)
Protocol: as §1

[9] = biological target: T2, EphB1(h) (Homo sapiens, UniProt P54762)
T2 construct: purchased Millipore (KinaseProfiler service)
T2 sequence (P54762 18-984): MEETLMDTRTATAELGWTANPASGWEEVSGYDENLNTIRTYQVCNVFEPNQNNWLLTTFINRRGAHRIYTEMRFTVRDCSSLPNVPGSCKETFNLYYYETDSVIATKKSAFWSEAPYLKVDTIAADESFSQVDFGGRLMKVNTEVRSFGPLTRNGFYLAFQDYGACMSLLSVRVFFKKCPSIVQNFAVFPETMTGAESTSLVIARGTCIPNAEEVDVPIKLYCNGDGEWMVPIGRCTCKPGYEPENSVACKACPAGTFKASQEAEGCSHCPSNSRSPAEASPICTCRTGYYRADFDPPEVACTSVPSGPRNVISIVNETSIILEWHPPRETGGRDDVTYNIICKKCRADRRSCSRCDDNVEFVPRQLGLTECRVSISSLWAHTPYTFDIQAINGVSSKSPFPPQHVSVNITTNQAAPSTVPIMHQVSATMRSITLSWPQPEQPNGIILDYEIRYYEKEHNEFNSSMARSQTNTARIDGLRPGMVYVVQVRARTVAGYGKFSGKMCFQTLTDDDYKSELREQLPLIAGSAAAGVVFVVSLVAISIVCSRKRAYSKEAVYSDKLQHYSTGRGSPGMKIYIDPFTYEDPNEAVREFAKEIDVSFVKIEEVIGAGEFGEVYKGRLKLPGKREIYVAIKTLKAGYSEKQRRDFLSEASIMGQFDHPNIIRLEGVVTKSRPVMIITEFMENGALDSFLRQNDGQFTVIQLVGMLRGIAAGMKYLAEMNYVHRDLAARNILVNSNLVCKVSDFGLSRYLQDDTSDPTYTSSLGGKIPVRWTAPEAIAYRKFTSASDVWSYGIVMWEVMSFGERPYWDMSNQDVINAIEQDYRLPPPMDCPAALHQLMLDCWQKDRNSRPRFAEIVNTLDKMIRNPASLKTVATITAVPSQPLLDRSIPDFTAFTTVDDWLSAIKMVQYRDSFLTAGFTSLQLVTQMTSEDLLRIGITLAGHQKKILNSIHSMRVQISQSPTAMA
Protocol: as §1

[10] = biological target: T3, EphB4(h) (Homo sapiens, UniProt P54760)
T3 construct: purchased Millipore (KinaseProfiler service)
T3 sequence (P54760 16-987): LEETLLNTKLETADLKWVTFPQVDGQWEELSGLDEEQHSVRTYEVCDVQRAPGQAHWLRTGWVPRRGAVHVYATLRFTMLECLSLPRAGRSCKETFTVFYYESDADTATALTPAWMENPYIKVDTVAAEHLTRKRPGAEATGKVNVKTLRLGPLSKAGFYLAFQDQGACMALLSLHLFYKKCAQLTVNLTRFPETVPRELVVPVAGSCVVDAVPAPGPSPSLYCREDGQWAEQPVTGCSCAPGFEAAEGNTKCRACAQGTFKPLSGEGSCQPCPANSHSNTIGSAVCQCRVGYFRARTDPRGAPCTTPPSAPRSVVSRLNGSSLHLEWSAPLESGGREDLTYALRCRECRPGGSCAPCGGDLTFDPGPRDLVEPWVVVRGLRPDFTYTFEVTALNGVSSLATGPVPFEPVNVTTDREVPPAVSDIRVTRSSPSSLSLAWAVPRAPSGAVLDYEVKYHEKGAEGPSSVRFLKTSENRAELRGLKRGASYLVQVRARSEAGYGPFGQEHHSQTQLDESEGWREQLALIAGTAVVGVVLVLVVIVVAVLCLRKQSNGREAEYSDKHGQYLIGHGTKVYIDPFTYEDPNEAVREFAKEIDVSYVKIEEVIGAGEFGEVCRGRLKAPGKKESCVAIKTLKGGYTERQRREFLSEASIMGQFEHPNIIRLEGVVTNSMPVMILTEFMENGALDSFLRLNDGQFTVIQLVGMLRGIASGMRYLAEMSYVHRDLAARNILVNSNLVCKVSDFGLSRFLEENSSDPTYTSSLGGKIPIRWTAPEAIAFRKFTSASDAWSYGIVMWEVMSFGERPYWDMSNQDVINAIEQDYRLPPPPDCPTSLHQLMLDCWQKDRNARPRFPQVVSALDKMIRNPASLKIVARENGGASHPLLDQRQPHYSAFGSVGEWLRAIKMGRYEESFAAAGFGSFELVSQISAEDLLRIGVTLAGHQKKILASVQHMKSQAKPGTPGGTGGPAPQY
Protocol: as §1

[11] = biological target: Hck(h) activated (Homo sapiens, UniProt P08631)
Hck(h) activated, sequence (P08631 whole entry): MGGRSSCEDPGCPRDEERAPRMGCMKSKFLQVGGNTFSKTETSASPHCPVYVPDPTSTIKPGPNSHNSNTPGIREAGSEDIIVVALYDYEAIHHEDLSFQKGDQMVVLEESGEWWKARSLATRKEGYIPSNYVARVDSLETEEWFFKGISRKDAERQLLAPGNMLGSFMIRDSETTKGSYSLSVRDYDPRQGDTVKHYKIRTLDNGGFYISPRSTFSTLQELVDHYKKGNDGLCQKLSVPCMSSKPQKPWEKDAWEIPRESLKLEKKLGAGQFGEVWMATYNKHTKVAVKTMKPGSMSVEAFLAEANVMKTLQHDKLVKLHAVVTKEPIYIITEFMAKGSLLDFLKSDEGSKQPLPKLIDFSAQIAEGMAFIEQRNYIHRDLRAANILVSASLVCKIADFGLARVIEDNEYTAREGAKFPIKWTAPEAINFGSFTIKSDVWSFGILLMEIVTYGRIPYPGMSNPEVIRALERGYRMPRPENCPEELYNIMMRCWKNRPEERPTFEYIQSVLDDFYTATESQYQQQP
Protocol: as §1

[12] = biological target: IKKα(h) (Homo sapiens, UniProt O15111)
Protocol: as §1

[13] = biological target: IR(h), activated (Homo sapiens, UniProt P06213)
IR(h), activated, sequence (P06213 28-1382): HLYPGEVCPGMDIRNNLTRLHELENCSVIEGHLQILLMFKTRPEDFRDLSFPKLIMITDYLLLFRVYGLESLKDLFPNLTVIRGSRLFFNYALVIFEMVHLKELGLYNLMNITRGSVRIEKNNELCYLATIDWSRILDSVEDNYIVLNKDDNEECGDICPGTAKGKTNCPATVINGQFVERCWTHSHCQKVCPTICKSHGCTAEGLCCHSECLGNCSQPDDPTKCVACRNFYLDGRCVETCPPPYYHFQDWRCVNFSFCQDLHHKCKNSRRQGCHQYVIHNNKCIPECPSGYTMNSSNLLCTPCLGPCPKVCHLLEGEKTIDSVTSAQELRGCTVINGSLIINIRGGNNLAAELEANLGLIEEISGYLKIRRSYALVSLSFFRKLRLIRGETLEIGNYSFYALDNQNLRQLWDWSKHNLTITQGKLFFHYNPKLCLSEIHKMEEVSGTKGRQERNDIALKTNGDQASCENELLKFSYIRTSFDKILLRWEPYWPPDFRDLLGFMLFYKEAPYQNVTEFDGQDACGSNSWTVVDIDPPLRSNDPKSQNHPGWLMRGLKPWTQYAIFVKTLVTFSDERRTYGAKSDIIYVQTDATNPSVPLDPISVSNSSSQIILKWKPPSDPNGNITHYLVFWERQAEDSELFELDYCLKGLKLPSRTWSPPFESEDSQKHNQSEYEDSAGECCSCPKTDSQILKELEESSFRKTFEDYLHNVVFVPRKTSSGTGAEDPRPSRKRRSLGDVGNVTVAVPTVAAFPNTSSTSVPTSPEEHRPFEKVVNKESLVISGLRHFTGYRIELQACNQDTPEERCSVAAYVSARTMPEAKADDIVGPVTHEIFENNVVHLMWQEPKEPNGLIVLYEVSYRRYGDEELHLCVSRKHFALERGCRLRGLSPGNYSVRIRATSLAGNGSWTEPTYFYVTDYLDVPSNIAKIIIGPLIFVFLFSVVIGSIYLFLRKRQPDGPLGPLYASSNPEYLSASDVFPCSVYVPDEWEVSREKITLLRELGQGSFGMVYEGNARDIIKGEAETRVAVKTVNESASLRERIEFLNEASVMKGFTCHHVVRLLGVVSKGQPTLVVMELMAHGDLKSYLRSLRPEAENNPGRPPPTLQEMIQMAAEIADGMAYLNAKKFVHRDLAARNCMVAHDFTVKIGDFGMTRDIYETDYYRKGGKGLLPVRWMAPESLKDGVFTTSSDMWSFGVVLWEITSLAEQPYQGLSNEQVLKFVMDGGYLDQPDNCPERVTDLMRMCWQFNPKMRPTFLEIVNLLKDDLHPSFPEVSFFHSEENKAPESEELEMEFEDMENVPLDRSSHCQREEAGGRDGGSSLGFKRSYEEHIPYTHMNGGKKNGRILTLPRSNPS
Protocol: as §1

[14] = biological target: IRAK4(h) (Homo sapiens, UniProt Q9NWZ3)
Protocol: as §1

[15] = biological target: JNK1α1(h) (Homo sapiens, UniProt P45983)
Protocol: as §1

[16] = biological target: LIMK1(h) (Homo sapiens, UniProt P53667)
Protocol: as §1

[17] = biological target: MAPK1(h) (Homo sapiens, UniProt P27361)
Protocol: as §1

[18] = biological target: MAPK2(m) (Mus musculus, UniProt P63085)
Protocol: as §1

[19] = biological target: T4, MEK1(h) (Homo sapiens, UniProt Q02750)
T4 construct: purchased Millipore (KinaseProfiler service)
Protocol: as §1

[20] = biological target: T5, MELK(h) (Homo sapiens, UniProt Q14680)
T5 construct: purchased Millipore (KinaseProfiler service)
Protocol: as §1

[21] = biological target: T6, Met(D1246N)(h) (Homo sapiens, UniProt P08581, D1228N)
T6 construct: purchased Millipore (KinaseProfiler service)
Protocol: as §1

[22] = biological target: T7, Met(Y1248C)(h) (Homo sapiens, UniProt P08581, Y1230C)
T7 construct: purchased Millipore (KinaseProfiler service)
Protocol: as §1

[23] = biological target: NLK(h) (Homo sapiens, UniProt Q9UBE8)
Protocol: as §1

[24] = biological target: P1k3(h) (Homo sapiens, UniProt Q9H4B4)
Protocol: as §1

[25] = biological target: PAR-1Bα(h) (Homo sapiens, UniProt Q7KZI7)
Protocol: as §1

[26] = biological target: PKBβ(h) (Homo sapiens, UniProt P31751)
Protocol: as §1

[27] = biological target: PKCβII(h) (Homo sapiens, UniProt P05771)
Protocol: as §1

[28] = biological target: PKCι(h) (Homo sapiens, UniProt P41743)
Protocol: as §1

[29] = biological target: PRAK(h) (Homo sapiens, UniProt Q8IW41)
PRAK(h), sequence (Q8IW41 whole entry): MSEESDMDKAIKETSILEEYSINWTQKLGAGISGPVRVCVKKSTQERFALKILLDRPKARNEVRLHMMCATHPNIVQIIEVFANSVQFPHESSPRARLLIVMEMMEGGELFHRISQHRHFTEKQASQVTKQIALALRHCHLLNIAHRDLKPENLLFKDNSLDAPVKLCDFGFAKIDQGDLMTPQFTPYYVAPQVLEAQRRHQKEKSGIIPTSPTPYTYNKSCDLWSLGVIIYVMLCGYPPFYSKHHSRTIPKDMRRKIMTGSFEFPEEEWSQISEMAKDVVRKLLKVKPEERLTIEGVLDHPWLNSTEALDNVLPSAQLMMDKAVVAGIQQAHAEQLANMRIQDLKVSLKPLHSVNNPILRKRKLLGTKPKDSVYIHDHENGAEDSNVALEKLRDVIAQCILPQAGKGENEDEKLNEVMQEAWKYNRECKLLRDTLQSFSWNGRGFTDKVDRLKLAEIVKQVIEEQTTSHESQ
Protocol: as §1

[30] = biological target: T8, PRK2(h) (Homo sapiens, UniProt Q16513)
T8 construct: purchased Millipore (KinaseProfiler service)
Protocol: as §1

[31] = biological target: T9, Ron(h) (Homo sapiens, UniProt Q04912)
T9 construct: purchased Millipore (KinaseProfiler service)
Protocol: as §1

[32] = biological target: T10, SAPK2a(h) (Homo sapiens, UniProt Q16539)
T10 construct: purchased Millipore (KinaseProfiler service)
Protocol: as §1

[33] = biological target: T11, SGK3(h) (Homo sapiens, UniProt Q96BR1)
T11 construct: purchased Millipore (KinaseProfiler service)
Protocol: as §1

[34] = biological target: T12, SRPK1(h) (Homo sapiens, UniProt Q96SB4)
T12 construct: purchased Millipore (KinaseProfiler service)
Protocol: as §1

[35] = biological target: T13, TAK1(h) (Homo sapiens, UniProt O43318)
T13 construct: purchased Millipore (KinaseProfiler service)
Protocol: as §1

[36] = biological target: T14, Tie2(R849W)(h) (Homo sapiens, UniProt Q02763, R849W)
T14 construct: purchased Millipore (KinaseProfiler service)
Protocol: as §1

[37] = biological target: T15, Tie2(Y897S)(h) (Homo sapiens, UniProt Q02763, Y897S)
T15 construct: purchased Millipore (KinaseProfiler service)
Protocol: as §1

[38] = biological target: cKit(h) (Homo sapiens, UniProt P10721)
Protocol: as §1

[39] = biological target: p70S6K(h) (Homo sapiens, UniProt P23443)
p70S6K(h), sequence (P23443 whole entry): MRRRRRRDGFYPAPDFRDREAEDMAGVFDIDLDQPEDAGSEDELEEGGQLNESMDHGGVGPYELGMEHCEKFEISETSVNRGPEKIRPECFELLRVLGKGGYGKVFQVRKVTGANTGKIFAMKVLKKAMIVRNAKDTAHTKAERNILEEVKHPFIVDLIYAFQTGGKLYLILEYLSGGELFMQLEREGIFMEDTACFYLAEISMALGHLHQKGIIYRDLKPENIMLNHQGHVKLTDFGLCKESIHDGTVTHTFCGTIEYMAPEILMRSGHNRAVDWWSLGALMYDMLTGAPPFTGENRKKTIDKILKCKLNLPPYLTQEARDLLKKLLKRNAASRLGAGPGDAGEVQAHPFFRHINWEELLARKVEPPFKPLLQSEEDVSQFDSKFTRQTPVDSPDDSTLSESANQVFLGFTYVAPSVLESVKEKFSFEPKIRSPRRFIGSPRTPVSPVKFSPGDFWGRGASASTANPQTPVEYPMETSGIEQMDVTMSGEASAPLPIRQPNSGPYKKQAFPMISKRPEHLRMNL
Protocol: as §1

Activity % [1]: −2% | Activity % [2]: −2% | Activity % [3]: 9% | Activity % [4]: 1% | Activity % [5]: 91% | Activity % [6]: 91% | Activity % [7]: 87% | Activity % [8]: 122% | Activity % [9]: −1% | Activity % [10]: 14% | Activity % [11]: 12% | Activity % [12]: 102% | Activity % [13]: 13% | Activity % [14]: 67% | Activity % [15]: 92% | Activity % [16]: 15% | Activity % [17]: 128% | Activity % [18]: 101% | Activity % [19]: 63% | Activity % [20]: 40% | Activity % [21]: 20% | Activity % [22]: 20% | Activity % [23]: 96% | Activity % [24]: 95% | Activity % [25]: 15% | Activity % [26]: 97% | Activity % [27]: 109% | Activity % [28]: 105% | Activity % [29]: 100% | Activity % [30]: 30% | Activity % [31]: 34% | Activity % [32]: 79% | Activity % [33]: 102% | Activity % [34]: 96% | Activity % [35]: 65% | Activity % [36]: 6% | Activity % [37]: 3% | Activity % [38]: 84% | Activity % [39]: 84%
Compound: Cc1cc2c(F)c(Oc3nc(Nc4cc(C5CC5)[nH]n4)cc(N4CCN(C)CC4)n3)cc(F)c2[nH]1 [NTW-3475]
